According to patent publication US20070128217A1 (priority 2003, published 2007):

What was measured:
[1] = system: antibodies in sera from SARS patients (sera 1a, 1b, 2, 6, 37, 62, London, SARS-yellow, SARS-green); assay type: binding, human; parameters: Binding of serum 6 to linear peptides of protein X1 of SARS-CoV Urbani / Binding of serum 37 to linear peptides of protein X1 of SARS-CoV Urbani / Binding of serum 6 to looped/cyclic peptide (PEPSCAN-ELISA) / Binding of serum 37 to looped/cyclic peptide (PEPSCAN-ELISA) / Binding of serum 37 to looped/cyclic peptides of protein X1 of SARS-CoV Urbani / Binding of serum 6 to linear peptides of protein X2 / Binding of serum 37 to linear peptides of protein X2 / Binding of serum 37 to looped/cyclic peptides of protein X2 of SARS-CoV Urbani / Binding of serum 6 to linear peptides of protein M of SARS-CoV Urbani / Binding of serum 37 to linear peptides of protein M of SARS-CoV Urbani / Binding of serum 6 to looped/cyclic peptides of protein M of SARS-CoV Urbani / Binding of serum 37 to looped/cyclic peptides of protein M of SARS-CoV Urbani / Binding of serum 6 to linear peptides of protein X3 of SARS-CoV Urbani / Binding of serum 37 to linear peptides of protein X3 of SARS-CoV Urbani / Binding of serum 37 to looped/cyclic peptides of protein X3 of SARS-CoV Urbani / Binding of serum 6 to linear peptides of protein X4 of SARS-CoV Urbani / Binding of serum 37 to linear peptides of protein X4 of SARS-CoV Urbani / Binding of serum 37 to looped/cyclic peptides of protein X4 of SARS-CoV Urbani / Binding of serum 6 to linear peptides of protein X5 of SARS-CoV Urbani / Binding of serum 37 to linear peptides of protein X5 of SARS-CoV Urbani / Binding of serum 37 to looped/cyclic peptides of protein X5 of SARS-CoV Urbani / Binding of serum 6 to linear peptides of protein N of SARS-CoV Urbani / Binding of serum 37 to linear peptides of protein N of SARS-CoV Urbani / Binding of serum 6 to linear peptide (PEPSCAN-ELISA) / Binding of serum 1a to looped/cyclic peptides of protein N of SARS-CoV Urbani / Binding of serum 1b to looped/cyclic peptides of protein N of SARS-CoV Urbani / Binding of serum 2 to looped/cyclic peptides of protein N of SARS-CoV Urbani / Binding of serum 6 to looped/cyclic peptides of protein N of SARS-CoV Urbani / Binding of serum 37 to looped/cyclic peptides of protein N of SARS-CoV Urbani / Binding of serum 62 to looped/cyclic peptides of protein N of SARS-CoV Urbani / Binding of serum London to looped/cyclic peptides of protein N of SARS-CoV Urbani / Binding of serum SARS-green to looped/cyclic peptides of protein N of SARS-CoV Urbani: unit not given here
[2] = system: control sera (pooled serum of ten healthy LUMC hospital workers; commercial negative donor pooled serum from the Dutch bloodbank); assay type: binding, human; parameters: Binding of Control serum LUMC to linear peptides / Binding of Control serum Blood-bank to linear peptides / Binding of Control serum LUMC to looped peptides / Binding of Control Serum Blood-Bank to Looped peptides / Binding of Control serum LUMC to linear peptides of the protein M of SARS-CoV Urbani / Binding of Control serum Blood-bank to linear peptides of the protein M of SARS-CoV Urbani / Binding of Control serum LUMC to looped peptides of the protein M of SARS-CoV Urbani / Binding of Control Serum Blood-Bank to Looped peptides of the protein M of SARS-CoV Urbani: unit not given here
[3] = system: rabbit serum obtained by immunizing a rabbit with the SARS-CoV strain Frankfurt 1; assay type: binding; parameters: Binding of a rabbit serum to linear peptides / Binding of a rabbit serum to looped peptides / Rabbit serum linear peptides / Rabbit serum looped peptides / Binding of a rabbit serum to linear peptides of protein N of SARS-CoV Urbani (Rabbit serum linear peptides) / Binding of a rabbit serum to looped/cyclic peptides of protein N of SARS-CoV Urbani (Rabbit serum looped peptides): unit not given here
[4] = system: recombinant human anti-SARS-CoV antibody 03-018; assay type: binding; parameters: Binding of antibody 03-018 to linear peptides of the N protein of SARS-CoV Urbani / Binding of antibody 03-018 to looped/cyclic peptides of the N protein of SARS-CoV Urbani: unit not given here

Sequence | Binding of serum 1a to linear peptide (PEPSCAN-ELISA) [1] | Binding of serum 1a to looped/cyclic peptides of protein N of SARS-CoV Urbani [1] | Binding of serum 1b to linear peptide (PEPSCAN-ELISA) [1] | Binding of serum 1b to looped/cyclic peptides of protein N of SARS-CoV Urbani [1] | Binding of serum 2 to linear peptide (PEPSCAN-ELISA) [1] | Binding of serum 2 to looped/cyclic peptides of protein N of SARS-CoV Urbani [1] | Binding of serum 6 to looped/cyclic peptides of protein N of SARS-CoV Urbani [1] | Binding of serum 37 to looped/cyclic peptides of protein N of SARS-CoV Urbani [1] | Binding of serum 62 to looped/cyclic peptides of protein N of SARS-CoV Urbani [1] | Binding of serum London to looped/cyclic peptides of protein N of SARS-CoV Urbani [1] | Binding of serum SARS-green to looped/cyclic peptides of protein N of SARS-CoV Urbani [1] | Binding of serum SARS-yellow to looped/cyclic peptides of protein N of SARS-CoV Urbani [1] | Binding of Control Serum Blood-Bank to Looped peptides [2] | Binding of Control serum Blood-bank to linear peptides [2] | Binding of Control serum LUMC to linear peptides [2] | Binding of Control serum LUMC to looped peptides [2] | Binding of a rabbit serum to linear peptides of protein N of SARS-CoV Urbani (Rabbit serum linear peptides) [3] | Binding of a rabbit serum to looped/cyclic peptides of protein N of SARS-CoV Urbani (Rabbit serum looped peptides) [3] | Binding of antibody 03-018 to linear peptides of the N protein of SARS-CoV Urbani [4] | Binding of antibody 03-018 to looped/cyclic peptides of the N protein of SARS-CoV Urbani [4] | also measured
RGGSQASSRSSSRSR | 0.3 | 0.2 | 0.1 | 0.2 | 0.3 | 0.4 | 0.3 | 0.2 | 0.1 | 0.1 | 0.2 | 0.3 | 0.4 | 0.8 | 0.8 | 0.6 | 0.3 | 0.7 | 0.1 | 0.1 | Binding of serum 6 to linear peptide (PEPSCAN-ELISA) [1]: 0.4; Binding of serum 37 to linear peptide (PEPSCAN-ELISA) [1]: 0.7; Binding of serum 62 to linear peptide (PEPSCAN-ELISA) [1]: 0.7; Binding of serum London to linear peptide (PEPSCAN-ELISA) [1]: 0.5; Binding of serum SARS-green to linear peptide (PEPSCAN-ELISA) [1]: 0.3; Binding of serum SARS-yellow to linear peptide (PEPSCAN-ELISA) [1]: 0.7
RGNSRNSTPGSSRGN | 0.7 | 0.8 | 0.4 | 0.6 | 0.2 | 0.4 | 0.4 | 0.6 | 0.5 | 0.4 | 0.3 | 0.5 | 0.6 | 0.8 | 0.6 | 0.6 | 0.2 | 0.7 | 0.1 | 0.2 | Binding of serum 6 to linear peptide (PEPSCAN-ELISA) [1]: 0.2; Binding of serum 37 to linear peptide (PEPSCAN-ELISA) [1]: 0.7; Binding of serum 62 to linear peptide (PEPSCAN-ELISA) [1]: 0.7; Binding of serum London to linear peptide (PEPSCAN-ELISA) [1]: 0.4; Binding of serum SARS-green to linear peptide (PEPSCAN-ELISA) [1]: 0.2; Binding of serum SARS-yellow to linear peptide (PEPSCAN-ELISA) [1]: 0.8
RGPEQTQGNFGDQDL | – | 0.4 | – | 0.4 | – | 0.4 | 0.2 | 0.6 | 0.5 | 0.4 | 0.6 | 0.6 | 0.4 | 0.7 | 0.7 | 0.6 | 0.2 | 0.3 | 0.1 | 0.2 | Recognition of the peptide by sera of SARS-CoV infected individuals, and form (linear, looped/cyclic) in which it is recognized [1]: recognized in linear form
